# Data: ChEMBL document CHEMBL3885881, “DrugMatrix”
# Organism: Rattus norvegicus
# Assay: DrugMatrix - Regimen: Daily Repeat
# Type: toxicity, organism-based, Sprague-Dawley
# Parameters: regimen Daily Repeat, gender Male, age 6-8 weeks
# Details: in vivo, po, route oral GAVAGE, vehicle .5 % CMC; for ABSOLUTE BASOPHIL / ABSOLUTE EOSINOPHIL / ABSOLUTE LYMPHOCYTE / ABSOLUTE MONOCYTE / ABSOLUTE SEGMENTED NEUTROPHIL / BASOPHIL / EOSINOPHIL / ERYTHROCYTE COUNT / HEMATOCRIT / HEMOGLOBIN / LEUKOCYTE COUNT / LYMPHOCYTE / MEAN CORPUSCULAR HEMOGLOBIN / MEAN CORPUSCULAR HEMOGLOBIN CONCENTRATION / MEAN CORPUSCULAR VOLUME / MONOCYTE / NEUTROPHIL / NUCLEATED RED BLOOD CELLS / PLATELET COUNT: tissue Blood; for ALANINE AMINOTRANSFERASE / ALBUMIN / ALKALINE PHOSPHATASE / ASPARTATE AMINOTRANSFERASE / BLOOD UREA NITROGEN / CARBON DIOXIDE / CHLORIDE / CHOLESTEROL / CREATINE PHOSPHOKINASE / CREATININE / GLUCOSE / LACTATE DEHYDROGENASE / LIPASE / PHOSPHORUS / POTASSIUM / SODIUM / TOTAL BILIRUBIN / TOTAL PROTEIN / URIC ACID: tissue Plasma
# [1] = 25 mg/kg, 72 h, dose level Low, time 3 day
# [2] = 25 mg/kg, 120 h, dose level Low, time 5 day
# [3] = 300 mg/kg, 72 h, dose level High, time 3 day
# [4] = 300 mg/kg, 120 h, dose level High, time 5 day
smiles,measurement,setting,value
CC(=O)S[C@@H]1CC2=CC(=O)CC[C@]2(C)[C@H]2CC[C@@]3(C)[C@@H](CC[C@@]34CCC(=O)O4)[C@H]12 [SPIRONOLACTONE],ABSOLUTE BASOPHIL,[1],0 CELLS/uL
same,ABSOLUTE EOSINOPHIL,[1],0 CELLS/uL
same,ABSOLUTE LYMPHOCYTE,[1],11038 CELLS/uL
same,ABSOLUTE MONOCYTE,[1],168 CELLS/uL
same,ABSOLUTE SEGMENTED NEUTROPHIL,[1],694 CELLS/uL
same,BASOPHIL,[1],0%
same,EOSINOPHIL,[1],0%
same,ERYTHROCYTE COUNT,[1],5.44 x10E6/uL
same,HEMATOCRIT,[1],34.63%
same,HEMOGLOBIN,[1],13.87 G/DL
same,LEUKOCYTE COUNT,[1],11.9 x10E3/uL
same,LYMPHOCYTE,[1],92.67%
same,MEAN CORPUSCULAR HEMOGLOBIN,[1],25.53 pg
same,MEAN CORPUSCULAR HEMOGLOBIN CONCENTRATION,[1],40.03 G/DL
same,MEAN CORPUSCULAR VOLUME,[1],63.7 fL
same,MONOCYTE,[1],1.33%
same,NEUTROPHIL,[1],6%
same,NUCLEATED RED BLOOD CELLS,[1],0.67 /100WBC
same,PLATELET COUNT,[1],1277 x10E3/uL
same,ALANINE AMINOTRANSFERASE,[1],45.67 u/L
same,ALBUMIN,[1],4.3 G/DL
same,ALKALINE PHOSPHATASE,[1],295 u/L
same,ASPARTATE AMINOTRANSFERASE,[1],77.33 u/L
same,BLOOD UREA NITROGEN,[1],15.33 mg/dL
same,CARBON DIOXIDE,[1],28 mmol/L
same,CHLORIDE,[1],101.33 MEQ/L
same,CHOLESTEROL,[1],76.33 mg/dL
same,CREATINE PHOSPHOKINASE,[1],188.33 u/L
same,CREATININE,[1],0.21 mg/dL
same,GLUCOSE,[1],169.33 mg/dL
same,LACTATE DEHYDROGENASE,[1],202.67 u/L
same,LIPASE,[1],9.67 u/L
same,PHOSPHORUS,[1],12.5 mg/dL
same,POTASSIUM,[1],6.74 MEQ/L
same,SODIUM,[1],146.03 MEQ/L
same,TOTAL BILIRUBIN,[1],0.2 mg/dL
same,TOTAL PROTEIN,[1],5.83 G/DL
same,URIC ACID,[1],1.8 mg/dL
same,ABSOLUTE BASOPHIL,[2],0 CELLS/uL
same,ABSOLUTE EOSINOPHIL,[2],0 CELLS/uL
same,ABSOLUTE LYMPHOCYTE,[2],13033 CELLS/uL
same,ABSOLUTE MONOCYTE,[2],85.33 CELLS/uL
same,ABSOLUTE SEGMENTED NEUTROPHIL,[2],1115 CELLS/uL
same,BASOPHIL,[2],0%
same,EOSINOPHIL,[2],0%
same,ERYTHROCYTE COUNT,[2],5.6 x10E6/uL
same,HEMATOCRIT,[2],34.4%
same,HEMOGLOBIN,[2],13.67 G/DL
same,LEUKOCYTE COUNT,[2],14.23 x10E3/uL
same,LYMPHOCYTE,[2],91.33%
same,MEAN CORPUSCULAR HEMOGLOBIN,[2],24.47 pg
same,MEAN CORPUSCULAR HEMOGLOBIN CONCENTRATION,[2],39.73 G/DL
same,MEAN CORPUSCULAR VOLUME,[2],61.5 fL
same,MONOCYTE,[2],0.67%
same,NEUTROPHIL,[2],8%
same,NUCLEATED RED BLOOD CELLS,[2],0 /100WBC
same,PLATELET COUNT,[2],1372 x10E3/uL
same,ALANINE AMINOTRANSFERASE,[2],48.67 u/L
same,ALBUMIN,[2],4.3 G/DL
same,ALKALINE PHOSPHATASE,[2],354.67 u/L
same,ASPARTATE AMINOTRANSFERASE,[2],81 u/L
same,BLOOD UREA NITROGEN,[2],19 mg/dL
same,CARBON DIOXIDE,[2],25.67 mmol/L
same,CHLORIDE,[2],103.33 MEQ/L
same,CHOLESTEROL,[2],60.33 mg/dL
same,CREATINE PHOSPHOKINASE,[2],259.33 u/L
same,CREATININE,[2],0.2 mg/dL
same,GLUCOSE,[2],164.33 mg/dL
same,LACTATE DEHYDROGENASE,[2],139 u/L
same,LIPASE,[2],9.67 u/L
same,PHOSPHORUS,[2],12.23 mg/dL
same,POTASSIUM,[2],6.24 MEQ/L
same,SODIUM,[2],148.03 MEQ/L
same,TOTAL BILIRUBIN,[2],0.23 mg/dL
same,TOTAL PROTEIN,[2],6.27 G/DL
same,URIC ACID,[2],1.93 mg/dL
same,ABSOLUTE BASOPHIL,[3],0 CELLS/uL
same,ABSOLUTE EOSINOPHIL,[3],0 CELLS/uL
same,ABSOLUTE LYMPHOCYTE,[3],10747 CELLS/uL
same,ABSOLUTE MONOCYTE,[3],38 CELLS/uL
same,ABSOLUTE SEGMENTED NEUTROPHIL,[3],481.67 CELLS/uL
same,BASOPHIL,[3],0%
same,EOSINOPHIL,[3],0%
same,ERYTHROCYTE COUNT,[3],5.83 x10E6/uL
same,HEMATOCRIT,[3],37.33%
same,HEMOGLOBIN,[3],14.97 G/DL
same,LEUKOCYTE COUNT,[3],11.27 x10E3/uL
same,LYMPHOCYTE,[3],95.33%
same,MEAN CORPUSCULAR HEMOGLOBIN,[3],25.67 pg
same,MEAN CORPUSCULAR HEMOGLOBIN CONCENTRATION,[3],40.07 G/DL
same,MEAN CORPUSCULAR VOLUME,[3],64.03 fL
same,MONOCYTE,[3],0.33%
same,NEUTROPHIL,[3],4.33%
same,NUCLEATED RED BLOOD CELLS,[3],0 /100WBC
same,PLATELET COUNT,[3],1193 x10E3/uL
same,ALANINE AMINOTRANSFERASE,[3],95 u/L
same,ALBUMIN,[3],4.27 G/DL
same,ALKALINE PHOSPHATASE,[3],425.67 u/L
same,ASPARTATE AMINOTRANSFERASE,[3],757 u/L
same,BLOOD UREA NITROGEN,[3],16.67 mg/dL
same,CARBON DIOXIDE,[3],22.67 mmol/L
same,CHLORIDE,[3],101.33 MEQ/L
same,CHOLESTEROL,[3],65.67 mg/dL
same,CREATINE PHOSPHOKINASE,[3],5158.67 u/L
same,CREATININE,[3],0.2 mg/dL
same,GLUCOSE,[3],152.67 mg/dL
same,LACTATE DEHYDROGENASE,[3],2756 u/L
same,LIPASE,[3],11 u/L
same,PHOSPHORUS,[3],12.67 mg/dL
same,POTASSIUM,[3],9.65 MEQ/L
same,SODIUM,[3],142.53 MEQ/L
same,TOTAL BILIRUBIN,[3],0.3 mg/dL
same,TOTAL PROTEIN,[3],6.07 G/DL
same,URIC ACID,[3],3.73 mg/dL
same,ABSOLUTE BASOPHIL,[4],0 CELLS/uL
same,ABSOLUTE EOSINOPHIL,[4],55.67 CELLS/uL
same,ABSOLUTE LYMPHOCYTE,[4],15788 CELLS/uL
same,ABSOLUTE MONOCYTE,[4],55.67 CELLS/uL
same,ABSOLUTE SEGMENTED NEUTROPHIL,[4],1134 CELLS/uL
same,BASOPHIL,[4],0%
same,EOSINOPHIL,[4],0.33%
same,ERYTHROCYTE COUNT,[4],5.9 x10E6/uL
same,HEMATOCRIT,[4],35.17%
same,HEMOGLOBIN,[4],14.23 G/DL
same,LEUKOCYTE COUNT,[4],17.03 x10E3/uL
same,LYMPHOCYTE,[4],92.67%
same,MEAN CORPUSCULAR HEMOGLOBIN,[4],24.17 pg
same,MEAN CORPUSCULAR HEMOGLOBIN CONCENTRATION,[4],40.47 G/DL
same,MEAN CORPUSCULAR VOLUME,[4],59.6 fL
same,MONOCYTE,[4],0.33%
same,NEUTROPHIL,[4],6.67%
same,NUCLEATED RED BLOOD CELLS,[4],0 /100WBC
same,PLATELET COUNT,[4],1586.67 x10E3/uL
same,ALANINE AMINOTRANSFERASE,[4],70.33 u/L
same,ALBUMIN,[4],4.23 G/DL
same,ALKALINE PHOSPHATASE,[4],327.33 u/L
same,ASPARTATE AMINOTRANSFERASE,[4],72.33 u/L
same,BLOOD UREA NITROGEN,[4],17.33 mg/dL
same,CARBON DIOXIDE,[4],27.33 mmol/L
same,CHLORIDE,[4],101.33 MEQ/L
same,CHOLESTEROL,[4],60.67 mg/dL
same,CREATINE PHOSPHOKINASE,[4],189.67 u/L
same,CREATININE,[4],0.21 mg/dL
same,GLUCOSE,[4],158.33 mg/dL
same,LACTATE DEHYDROGENASE,[4],134.33 u/L
same,LIPASE,[4],10.33 u/L
same,PHOSPHORUS,[4],11.07 mg/dL
same,POTASSIUM,[4],6.24 MEQ/L
same,SODIUM,[4],145.57 MEQ/L
same,TOTAL BILIRUBIN,[4],0.2 mg/dL
same,TOTAL PROTEIN,[4],6.17 G/DL
same,URIC ACID,[4],2 mg/dL
